In patent US20220312768A1, “COMBINATIONS OF AGROCHEMICALS WITH METABOLIC INHIBITORS” (THE BOARD OF TRUSTEES OF THE UNIVERSITY OF ARKANSAS, priority 2021, published 2022):
Values joined by “and” are separate entries in the source; they are usually repeats but may differ in a detail not shown here. Identical values can stand only once. “Also recorded” adds a separate entry of the source.

How the values were obtained:
Palmer amaranth [1] = test: Greenhouse experiment, GST blockers added to KFD-581-01, Palmer amaranth control and biomass reduction; type: in vivo, Amaranthus palmi; conditions: for Palmer amaranth control, relative effectiveness of treatments: 7 DAA; for Reduction in above-ground biomass compared to the untreated check / Palmer amaranth control versus KFD-581-01 applied alone: 14 DAA, higher rates + KFD-581-01 300 g ai/ha
Palmer amaranth [2] = test system: Palmer amaranth; parameters: species or system Amaranthus palmeri; conditions: in vivo
[3] = all rates (17, 34, 67 g ai/ha) + KFD-581-01 300 g ai/ha

Row | Compound | Palmer amaranth control, relative effectiveness of treatments (Palmer amaranth [1]; [3]) | Reduction in above-ground biomass compared to the untreated check (Palmer amaranth [1]) | Palmer amaranth control versus KFD-581-01 applied alone (Palmer amaranth [1]) | Efficacy at the highest rate versus low or mid rates (Palmer amaranth [1]; 67 g ai/ha versus 17 or 34 g ai/ha, + KFD-581-01 300 g ai/ha) | Palmer amaranth control (%) (Palmer amaranth [2]) | Palmer amaranth control, relative effectiveness of treatments (Palmer amaranth [1]; two highest rates (34 and 67 g ai/ha) + KFD-581-01 300 g ai/ha)
1 | O=c1c(O)c(-c2ccc(O)c(O)c2)oc2cc(O)cc(O)c12 [quercetin] | most effective; also recorded: more effective than any rate of curcumin or NBD-CL | largest reductions in biomass |  |  |  | 
2 | O=c1oc2c(O)c(O)cc3c(=O)oc4c(O)c(O)cc1c4c23 [ellagic acid] | most effective; also recorded: more effective than any rate of curcumin or NBD-CL | largest reductions in biomass | increased levels of Palmer amaranth control |  |  | 
3 | O=C(O)/C=C/c1ccc(O)c(O)c1 [caffeic acid] | most effective; also recorded: more effective than any rate of curcumin or NBD-CL |  | increased levels of Palmer amaranth control | decreased efficacy at the highest rate |  | 
4 | CP(=O)(O)CCC(N)C(=O)O (centres unmarked) [Glufosinate, 2-amino-4-[hydroxy(methyl)phosphoryl]butanoic acid] |  |  |  |  | 74% and 60% and 74b % and 60c % | 
5 | O=C(O)[C@H]1O[C@@H](Oc2cc3oc(-c4ccccc4)cc(=O)c3c(O)c2O)[C@H](O)[C@@H](O)[C@@H]1O [baicalin] |  |  | increased levels of Palmer amaranth control |  |  | most effective; also recorded: more effective than any rate of curcumin or NBD-CL
